Experimental data from ChEMBL document CHEMBL1201862, “PubChem BioAssay data set” (2004).
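Test compounds were applied to cells in 96-well plates for 48 hours at 5 doses. GI50 marks 50% less growth.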 Activity calls are given as the source filed them. Rule as the data show it: active = GI50 up to about 1.1 µM and inactive = higher.

Tests used:
Assay in all cases: inhibition of tumour cell growth, NCI panel, 48 h
[1] = tested on: A549
[2] = tested on: HT-29
[3] = tested on: IGROV-1
[4] = tested on: KM12
[5] = tested on: MDA-MB-231
[6] = tested on: MDA-MB-435
[7] = tested on: MOLT-4
[8] = tested on: Malme-3M
[9] = tested on: NCI-H226
[10] = tested on: NCI-H522
[11] = tested on: OVCAR-5
[12] = tested on: SK-MEL-2
[13] = tested on: SN12C
[14] = tested on: SNB-75
[15] = tested on: SR
[16] = tested on: TK-10
[17] = tested on: UACC-62
[18] = tested on: UO-31
[19] = tested on: OVCAR-3
[20] = tested on: SF-268

For `O=C1NC2(CCCCC2)C(=O)N1CCN(CCCl)CCCl` [SPIROMUSTINE], the GI50 [1] was 135 µM (inactive), the GI50 [2] was > 250 µM (inactive) and the GI50 [3] was > 250 µM (inactive). For the same compound, the GI50 [4] was 199 µM (inactive), the GI50 [5] was > 25 µM (inactive) and the GI50 [6] was > 25 µM (inactive). The GI50 [7] was 34.2 µM (inactive), the GI50 [8] was 165 µM (inactive) and the GI50 [9] was > 250 µM (inactive). The GI50 [10] was 65.5 µM (inactive), the GI50 [11] was > 233 µM (inactive) and the GI50 [12] was > 141 µM (inactive). The GI50 [13] was 112 µM (inactive), the GI50 [14] was 173 µM (inactive) and the GI50 [15] was 19.4 µM (inactive). For the same compound, the GI50 [16] was > 25 µM (inactive), the GI50 [17] was 77.6 µM (inactive) and the GI50 [18] was 218 µM (inactive).
For `CCN(C)c1nc(N(C)CC)c2nc(N(C)CC)nc(N(C)CC)c2n1`, the GI50 [1] was > 100 µM (inactive), the GI50 [2] was > 100 µM (inactive) and the GI50 [3] was > 100 µM (inactive). For the same compound, the GI50 [4] was > 100 µM (inactive), the GI50 [5] was > 100 µM (inactive) and the GI50 [6] was > 100 µM (inactive). The GI50 [7] was > 100 µM (inactive), the GI50 [8] was > 100 µM (inactive) and the GI50 [10] was > 100 µM (inactive). The GI50 [19] was > 100 µM (inactive), the GI50 [11] was > 100 µM (inactive) and the GI50 [20] was > 100 µM (inactive). The GI50 [12] was > 100 µM (inactive), the GI50 [13] was > 100 µM (inactive) and the GI50 [14] was > 100 µM (inactive). The GI50 [15] was 26.5 µM (inactive), the GI50 [16] was > 100 µM (inactive) and the GI50 [17] was > 100 µM (inactive). For the same compound, the GI50 [18] was > 100 µM (inactive).
For `O=[N+]([O-])c1ccc2c(c1)=[N+]([O-])C1(CCCCC1)[N+]=2[O-]`, the GI50 [1] was 19.7 µM (inactive), the GI50 [2] was 19.5 µM (inactive) and the GI50 [3] was 20.4 µM (inactive). The GI50 [4] was 20.5 µM (inactive), the GI50 [5] was 18.2 µM (inactive) and the GI50 [6] was 13.7 µM (inactive). For the same compound, the GI50 [7] was 6.15 µM (inactive), the GI50 [8] was 15.2 µM (inactive) and the GI50 [9] was 21.1 µM (inactive). For the same compound, the GI50 [19] was 15.6 µM (inactive), the GI50 [11] was 20.5 µM (inactive) and the GI50 [20] was 26.9 µM (inactive). For the same compound, the GI50 [12] was 22.1 µM (inactive), the GI50 [13] was 17.5 µM (inactive) and the GI50 [14] was 17.3 µM (inactive). For the same compound, the GI50 [15] was 6.43 µM (inactive), the GI50 [16] was 13.3 µM (inactive) and the GI50 [17] was 10.4 µM (inactive). The GI50 [18] was 19.6 µM (inactive).
For `CCOc1cc2c(c(OCC)c1O)CC[C@@H]1[C@@H]2CC[C@]2(C)[C@@H](O)CC[C@@H]12`, the GI50 [1] was 7.11 µM (inactive), the GI50 [2] was 8.38 µM (inactive) and the GI50 [3] was 6.76 µM (inactive). For the same compound, the GI50 [4] was 6.03 µM (inactive), the GI50 [5] was 2.62 µM (inactive) and the GI50 [6] was 0.203 µM (active). The GI50 [7] was 0.681 µM (active), the GI50 [8] was 2.29 µM (inactive) and the GI50 [9] was 15.9 µM (inactive). For the same compound, the GI50 [10] was 0.61 µM (active), the GI50 [11] was 10.7 µM (inactive) and the GI50 [20] was 4.79 µM (inactive). The GI50 [12] was 14 µM (inactive), the GI50 [14] was 0.587 µM (active) and the GI50 [15] was 0.331 µM (active). For the same compound, the GI50 [16] was 25.3 µM (inactive), the GI50 [17] was 0.482 µM (active) and the GI50 [18] was 9.27 µM (inactive).
`CC1CCC2c3c([nH]c4ccccc34)C3C(=O)N(C4CCCCC4)C(=O)C3C2C1` (stereo unspecified) was tested, and the GI50 [1] was 19.1 µM (inactive), the GI50 [2] was > 100 µM (inactive) and the GI50 [3] was 17.2 µM (inactive). The GI50 [5] was 11.8 µM (inactive), the GI50 [6] was 55.3 µM (inactive) and the GI50 [8] was 29.3 µM (inactive). The GI50 [9] was 16.5 µM (inactive), the GI50 [10] was > 100 µM (inactive) and the GI50 [19] was 19.9 µM (inactive). For the same compound, the GI50 [11] was 18.5 µM (inactive), the GI50 [20] was 13.6 µM (inactive) and the GI50 [12] was 17.4 µM (inactive). The GI50 [13] was 22.9 µM (inactive), the GI50 [14] was 2.78 µM (inactive) and the GI50 [15] was 29.2 µM (inactive). For the same compound, the GI50 [16] was 13.4 µM (inactive), the GI50 [17] was 12.2 µM (inactive) and the GI50 [18] was 19.8 µM (inactive).
With `COC(=O)c1ccc(NCC2=CC(=O)C=CC2=O)cc1O` the GI50 [1] was 32.6 µM (inactive), the GI50 [2] was 19.6 µM (inactive) and the GI50 [3] was 17.3 µM (inactive). For the same compound, the GI50 [5] was 16.8 µM (inactive), the GI50 [6] was 29.4 µM (inactive) and the GI50 [7] was 8.87 µM (inactive). For the same compound, the GI50 [8] was 10.6 µM (inactive), the GI50 [9] was 19.5 µM (inactive) and the GI50 [10] was 2.11 µM (inactive). The GI50 [19] was 11.5 µM (inactive), the GI50 [11] was 18.8 µM (inactive) and the GI50 [20] was 28.9 µM (inactive). For the same compound, the GI50 [12] was 44.2 µM (inactive), the GI50 [13] was 21.5 µM (inactive) and the GI50 [14] was 19 µM (inactive). For the same compound, the GI50 [15] was > 100 µM (inactive), the GI50 [16] was 14.4 µM (inactive) and the GI50 [17] was 15.7 µM (inactive). The GI50 [18] was 12.7 µM (inactive).
